Data reported in patent US10549052B2, “Nasal delivery device” (SIPNOSE LTD., priority 2012, dated 2020).
Like-named read-outs stand apart in the source and are kept apart here. Each block holds one compound with its values, some of them ahead of it.

Columns and labels:
[1] = Micro-PET-CT tissue absorption of F-DOPA, SipNose nasal application versus I/V administration; settings: rat
Experimental: The objective of the experiment was to compare nasal application with SipNose device to a systemic application by IV administration of F-DOPA (that corresponds to the drug L-DOPA) by means of brain absorption (namely the target tissue) and systemic absorption (namely non relevant tissues contamination).
• Animals were anesthetized with a Ketamine-Xylazine cocktail. • Animals were treated according to the 2 groups as below: • 1. Systemic administration of F-DOPA by I/V injection of 1 ml. Administration doses were between 17 and 83 μg, and injected radioactivity dose was around 1000 μCi. • 2. Nasal application of F-DOPA by SipNose device application of 13-20 μl. Administration doses were between 1.2 and 2.8 μg, and injected radioactivity doses were around 26 μCi. All I/V administered animals and part of the Nasal applied animals (as will be indicated) were pre-treated with 10 mg/kg Carbidopa (by IP administration) 30 min prior to L-DOPA administration to eliminate peripheral conversion to dopamine. • Animals were subjected to Micro-PET-CT. PET scans were done for 45 min following L-DOPA administration by I/V or Nasal route. • Analysis of F-DOPA absorption in the following tissues was tested: • Brain, Heart, Lungs, liver.

[2] = Dye deposition in the olfactory epithelium following application with the present device; type: in vivo; settings: rat, 15 microliter to one nostril with the present device, post mortem (FIG. 31B)
Description: Methylene Blue solution (as in Example 1) was applied to the rat nose with the present device. 15 microliter was applied to one nostril and immediately after that the animal was sacrificed and the nasal and brain tissue were exposed to follow the dye deposition.

[3] = Experimental: Brain uptake of a compound with low blood-brain barrier (BBB) penetration ^11C-choline, was applied by the device of the present application (refers also as SipNose). 33.2 μCi/5.3 μmol (approx. 0.551 mg) of ^11C-choline was applied by the device of the present application to a 381 gm rat. A 45 min. dynamic PET scan was performed followed by a CT scan.
It should be noted that in the above mentioned examples, the compressed gas is in volumes of about 15 ml and compressed to about 7 bar.
Comparison of brain uptake of a compound with low blood-brain barrier (BBB) penetration, when applied to the nasal cavity with the device of the present application to deposition in the respiratory epithelium in the nasal cavity.
It should be noted that in the above mentioned examples, the compressed gas is in volumes of about 5 ml and compressed to about 4 bar.
Comparison of brain uptake of a compound with low blood-brain barrier (BBB) penetration, when applied with the present device versus intravenous (I/V) injection.
The data shown are the average of three trials for the present device, and the average of two trials for each of the I/V administration and the general nasal administration. The bar heights are relative to the brain concentration of ^11C choline after I/V administration.

[4] = rat, injected intravenously (I/V)
[5] = rat, via the present device (FIG. 41)

SMILES: N[C@@H](Cc1cc(O)c(O)cc1F)C(=O)O [F-Dopa, F-DOPA]
SipNose nasal application with versus without Carbidopa pre-treatment ([1]; 10 mg/kg Carbidopa IP 30 min prior): same results whether a pre-treatment with Carbidopa was given or not
brain concentrations, SipNose nasal application versus I/V ([1]; 22.5 min post treatment (t50 of the PET scan)): comparable
peripheral uptake compared to brain uptake ([1]; nasal application, heart, lungs, liver): lower peripheral concentrations than the brain F-Dopa concentrations
percentage of absorption in peripheral tissues relative to brain absorption, nasal versus I/V ([1]; heart, lungs, liver): lower in the nasal treated animals than in the I/V treated animals

location of dye deposition in the nasal cavity [2]: concentrated at the olfactory epithelium
SMILES: CN(C)c1ccc2nc3ccc(=[N+](C)C)cc-3sc2c1 [Methylene Blue]

location of deposition in the nasal cavity ([3]; live rat, PET-CT scan, present device (FIG. 31A)): concentrated at the olfactory epithelium
brain uptake with the present device relative to I/V application ([3]; rat, FIG. 38B versus FIG. 37B): more than 6 times
uptake to the brain ([3]; rat, I/V injection (FIG. 39)): less than 0.2 % of the administered dose
uptake to the brain ([3]; rat, SipNose nasal application, about 15 ml gas at about 7 bar, increasing gradually thereafter, 45 min dynamic PET scan): 0.6 % ID/ml
uptake to the brain ([3]; rat, SipNose nasal application, about 15 ml gas at about 7 bar, very shortly following administration): about 0.5 % ID/ml
brain uptake as share of the total drug administrated ([3]; rat, SipNose nasal application, corresponds to the % ID/ml values): ~1.2%
uptake entering the brain ([3]; rat, applied with the present device (FIG. 38B)): more than 0.5 % ID/ml
locations of uptake ([3]; rat, applied with the present device (SipNose), listed as 11C choline): mainly to the olfactory epithelium
brain concentration relative to I/V administration ([3]; rat, general nasal application, average of two trials (FIG. 40)): the same or slightly more
locations of uptake [3, 4]: mostly to the liver
uptake to the brain [3, 4]: about 0.1 % ID/ml
uptake of the radioactivity in the brain ([3]; rat, nasal application tuned to respiratory epithelium (about 5 ml, about 4 bar), no olfactory deposition, 45 minutes after activation): less than 0.1%
uptake of the radioactivity in the pharynx ([3]; rat, nasal application tuned to respiratory epithelium (about 5 ml, about 4 bar), less than a minute after activation): more than 0.4%
brain concentration relative to I/V administration ([3]; rat, present SipNose device, average of three trials (FIG. 40)): more than five times as great
uptake to the brain ([3]; rat, present device (FIG. 39)): more than 1 % of the administered dose
net uptake to non-olfactory brain tissues [3, 5]: about 2.5 μg
total uptake to the brain [3, 5]: ~6 µg
uptake to the olfactory bulbs [3, 5]: about 3 μg
SMILES: C[N+](C)(C)CCO [^11C-choline]
locations of uptake ([3]; rat, applied with the present device (SipNose)): greatest in the olfactory epithelium and least in the lungs
